Measurements as given in PMC9333455, “Drug repurposing based on a quantum-inspired method versus classical fingerprinting uncovers potential antivirals against SARS-CoV-2” (PLoS Computational Biology, 2022).

Test system: SARS-CoV-2 variants Alpha (B.1.1.7), Beta (B.1.351), Delta (B.617.2)
Assay type: cell-based
Settings: Vero E6 and Caco-2 cells, 48 h

COc1nc(N)nc2c1ncn2[C@@H]1O[C@H](COP(=O)(N[C@@H](C)C(=O)OCC(C)(C)C)Oc2cccc3ccccc23)[C@@H](O)[C@@]1(C)O (stereo partly shown) [BMS-986094]
replication of panel of SARS-CoV-2 variant isolates (in words): suppressed the replication
